# Measured values taken from the METLIN SMRT retention time set (Domingo-Almenara et al. 2019).
# Assay: gradient 5% acetonitrile 3 min, to 50% in 2 min, to 85% in 15 min, held 3 min, 100 µL/min
# Details: column: Zorbax Extend-C18 2.1 x 50 mm; eluents: water / acetonitrile, 0.1% formic acid
# Procedure, shortened: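 Standards, all pure, were combined into mixtures of ~100 molecules and run at 100 μL/min on a Zorbax Extend-C18 column (2.1 × 50 mm, 1.8 μm) with water and acetonitrile, each containing 0.1% formic acid. A coupled quadrupole time-of-flight mass spectrometer operated in positive and negative ionization mode. Retention time values come from computationally picked adduct peaks, each inspected manually.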
row,SMILES,RP-LC retention time
1,CCOC(=O)C1=C(CN2CCN(c3ncccn3)CC2)NC(=O)NC1c1ccc(Cl)cc1 (stereo not given),669 s
2,O=C(Nc1nccs1)C1CCN(C(=O)C2CC(=O)N(c3ccccc3)C2)CC1 (stereo not given),658 s
3,COc1cccc(CN2CC[C@@H]3CN(S(C)(=O)=O)[C@@H]3C2)n1,553 s
4,COc1ccc(CCC(=O)Nc2nc(-c3ccc(Cl)cc3)cs2)cc1,1120 s
5,COc1ccc(-n2ccc(=O)c(-c3nc(-c4ccccc4OCc4ccccc4)no3)n2)cc1,984 s
6,COc1cccc(COc2cn(C)c(C(=O)Nc3ccc4c(c3)OCCO4)cc2=O)c1,675 s
7,Cc1ccc2nc(Nc3nccc(C)n3)nc(C)c2c1,616 s
8,O=C(NCc1ccccn1)c1ccc2c(c1)N(CC(=O)N1CCCC1)C(=O)CO2,573 s
9,COc1ccccc1CNC(=O)c1nnc(-c2ccc(S(=O)(=O)N3CCC(C)CC3)cc2)o1,1020 s
10,CNC(=O)c1noc([C@@H]2CC(F)(F)CN2Cc2ccc(C)o2)n1,1070 s
11,COC(=O)c1cc(OCC(=O)Nc2ccc(F)cc2)c2cc(F)ccc2n1,836 s
12,Cc1c(N2CCN(C(=O)c3cccc(F)c3)CC2)c(=O)n(C)c(=O)n1C,698 s
13,O=C(CN1C(=O)CC(c2ccco2)Sc2ccccc21)Nc1ccccc1C(F)(F)F (stereo not given),899 s
14,O=C(NCC(=O)N1CC[C@H](NC2CCC(O)(c3ccc(-c4ncccn4)cn3)CC2)C1)c1cccc(C(F)(F)F)c1 (stereo not given in full),674 s
15,Cc1ccc(NC(=O)NC2CCN(c3ccc(C)c(C)c3)C2=O)cc1 (stereo not given),931 s
16,CCCn1cc(C(=O)NCCCOC)c(S(=O)(=O)N2CCN(c3ccccc3Cl)CC2)n1,1020 s
17,CCc1cccc(NC(=O)Cn2cnc3c(sc4nc(-c5ccccc5)ccc43)c2=O)c1,1100 s
18,O=C(NCc1ccc2c(c1)OCO2)C1CCCN(c2ccc(N3CCOCC3)nn2)C1 (stereo not given),609 s

row,SMILES,RP-LC retention time
1,O=C(NCc1cc(F)cc(F)c1)c1ccc(NC(=O)C2CCC2)cc1N1CCOCC1,871 s
2,CC1Cc2ccccc2N1C(=O)c1ccc(=O)n(CCC(=O)N2CCN(c3ccccn3)CC2)n1 (stereo not given),629 s
3,Cc1ccc(C2=NC3(CCN(C(=O)COc4ccc(Cl)cc4)CC3)ON2)cc1,935 s
4,Cc1nn(C)cc1CN1CCCCC1CCn1cc(-c2ccccc2)nn1 (stereo not given),564 s
5,Cc1nnc(C2CCCN(C(=O)c3ccc(S(=O)(=O)N(C)C)cc3)C2)s1 (stereo not given),642 s
6,CCN1C=C(C(=O)OCc2cc(F)ccc2F)C(C)=NS1(=O)=O,975 s
7,CCc1noc(-c2ccnc(-n3ncc(C(=O)N4CCC(C)CC4)c3C)c2)n1,1020 s
8,O=C(NCc1csc(C2CCN(C(=O)Cc3ccc(Cl)cc3)CC2)n1)C1CCC1,784 s
9,Cn1cc(-c2ccc3nnc(C(F)(F)c4ccc5ncccc5c4)n3n2)cn1,694 s
10,CCNC(=O)C1CCN(S(=O)(=O)c2cc(Cl)ccc2OC)CC1,726 s
11,O=C(Cc1cccc(F)c1)Nc1ccc2c(c1)CCC(=O)N2,650 s
12,Cc1ccc(NC(=O)Cn2nc(N3CCCC(C)C3)c3ccccc3c2=O)cc1F (stereo not given),1220 s
13,CC(C)c1nc2cccnc2n1CCN1CCN(C(=O)Nc2ccccc2Br)CC1,603 s
14,Cc1ccc(C)c(N2CCN(S(=O)(=O)c3cc(-c4cnn5c(C)cc(C)nc45)ccc3C)CC2)c1,1270 s
15,Cc1cc(C)c(S(=O)(=O)N2CCCC2c2nc(-c3cccc(F)c3)no2)c(C)c1 (stereo not given),1270 s
16,CNC(=O)[C@@H]1C[C@@H](O)CN1C1CCN(C(=O)CC2=CCCCC2)CC1,574 s
17,COCCNC(=O)c1ccc2c(c1)N(Cc1ccc(C)cc1)C(=O)CO2,748 s
